Assay results from patent US20230257385A1, “SALT AND SOLID FORMS OF TABERNANTHALOG” (priority 2021, published 2023).

Tests used:
[1] = Qualitative solubility screen of Tabernanthalog sorbate salt (Example 10, Experiment 2); type: physicochemical; settings: Tabernanthalog sorbate salt (input Form A), one solvent per sample; for Assignment (wet pellet XRPD): product crystallised in solubility screen, centrifuged wet pellet; for Assignment (dry pellet XRPD): same pellets dried under reduced pressure
Experimental: The qualitative solubility screen was carried out to determine the range of solvents incorporated into future suspension equilibration panels. Products that crystallised were centrifuged and analysed as wet pellet by XRPD, dried under reduced pressure and re-analysed by XRPD, with selected samples further analysed by TGA and ^1H NMR spectroscopy.
If insoluble at 5 vol, the solvent quantity was increased to 10 vol, 15 vol and 20 vol of the respective solvent. The suspensions that occurred upon cooling down were centrifuged and the solvent wet pellets were analysed by XRPD.
The insoluble suspensions were additionally worked up for XRPD analysis. The resultant powder patterns were subsequently cross-referenced against the input supplied material.

[2] = Suspension equilibration of sorbate salt at 20 and 40° C. (Example 10, Experiments 3, 4, 9); type: physicochemical; settings: one solvent per sample; for Observations (t = 1 d @ 20° C.) / Observations (t = 10 d @ 20° C.) / Observations (t = 1 d @ 40° C.) / Observations (t = 10 d @ 40° C.): sorbate salt Form A in 5 vol solvent; for Observations (t = 0 @ 20° C.) / Observations (t = 0 @ 40° C.): sorbate salt Form A, ca. 50 mg in 5 vol solvent; for XRPD (IPC, 6 d, wet): moist pellet after 6 d; for XRPD (post oven dried): pellet after oven drying
Experimental: The purpose of this panel is to determine if Form A evolves into a supra-ordinate form. The companion panel at 40° C. set-point is in place to detect enantiotropic behaviour via different relative proportions in different solvents. XRPD data of the moist pellets obtained from the suspension equilibration study at 20° C.
The relevant solvent (5 vol) was added to the appropriate vial and the suspensions were stirred and warmed to the predetermined temperature with stirring. […]

[3] = suspension equilibration at 20° C.
[4] = suspension equilibration at 40° C.

Compound | Assignment (wet pellet XRPD) [1] | Assignment (dry pellet XRPD) [1] | Observations (t = 1 d @ 20° C.) [2] | Observations (t = 10 d @ 20° C.) [2] | Observations (t = 0 @ 20° C.) [2] | also measured
CC=CC=CC(=O)O.COc1ccc2c3c([nH]c2c1)CCN(C)CC3.O | Pattern #1 | Converted into Form A |  |  |  | 
COc1ccc2c3c([nH]c2c1)CCN(C)CC3.O=C(O)/C=C/C(=O)O [Experiment 2-Sample C1] | Form A | Form A |  |  |  | 
COc1ccc2c3c([nH]c2c1)CCN(C)CC3 [Experiment 2-Sample D1] | Form A | Form A |  |  |  | Assignment (wet pellet XRPD) ([1]; listed as Experiment 2-Sample E1): Form A + split reflections 5.90º,
CC=CC=CC(=O)O.COc1ccc2c3c([nH]c2c1)CCN(C)CC3 [Experiment 2-Sample G1] | Form A | Form A |  |  |  | 
CC=CC=CC(=O)O.COc1ccc2c3c([nH]c2c1)CCN(C)CC3 [Experiment 2-Sample H1] | Form A + new shoulders | Form A + new shoulders |  |  |  | 
CC=CC=CC(=O)O.COc1ccc2c3c([nH]c2c1)CCN(C)CC3 [Experiment 2-Sample I1] | Oiled |  |  |  |  | 
CC=CC=CC(=O)O.COc1ccc2c3c([nH]c2c1)CCN(C)CC3 [Experiment 2-Sample J1] | Form A, some shift of d-spacings | Form A |  |  |  | 
CC=CC=CC(=O)O.COc1ccc2c3c([nH]c2c1)CCN(C)CC3 [Experiment 2-Sample L1] | Form A | Form A |  |  |  | 
CC=CC=CC(=O)O.COc1ccc2c3c([nH]c2c1)CCN(C)CC3 [Experiment 2-Sample M1] | Form A + shoulder 22.89º 2 | Form A + new shoulder |  |  |  | 
C/C=C/C=C/C(=O)O.COc1ccc2c3c([nH]c2c1)CCN(C)CC3 [Experiment 2-Sample N1] | Form A + split reflections | Form A |  |  |  | 
CC=CC=CC(=O)O.COc1ccc2c3c([nH]c2c1)CCN(C)CC3 [Experiment 2-Sample O1] | Form A + split reflections | Form A |  |  |  | 
CC=CC=CC(=O)O.COc1ccc2c3c([nH]c2c1)CCN(C)CC3 [Experiment 2-Sample P1] | Form A | Form A |  |  |  | 
CC=CC=CC(=O)O.COc1ccc2c3c([nH]c2c1)CCN(C)CC3 [Experiment 2-Sample Q1] | Form A + new shoulders | Form A |  |  |  | 
CC=CC=CC(=O)O.COc1ccc2c3c([nH]c2c1)CCN(C)CC3 [Experiment 2-Sample R1] | Form A | Form A |  |  |  | 
CC=CC=CC(=O)O.COc1ccc2c3c([nH]c2c1)CCN(C)CC3 [Experiment 3-Sample B] |  |  | Suspension | Suspension | Suspension | XRPD (IPC, 6 d, wet) [2, 3]: Form A; XRPD (post oven dried) [2, 3]: Form A
C/C=C/C=C/C(=O)O.COc1ccc2c3c([nH]c2c1)CCN(C)CC3 [Experiment 3-Sample C] |  |  | Suspension | Suspension | Suspension | XRPD (IPC, 6 d, wet) [2, 3]: Form A; XRPD (post oven dried) [2, 3]: Form A
CC=CC=CC(=O)O.COc1ccc2c3c([nH]c2c1)CCN(C)CC3 [Experiment 3-Sample F] |  |  | Suspension | Suspension | Suspension | XRPD (IPC, 6 d, wet) [2, 3]: Form A; XRPD (post oven dried) [2, 3]: Form A
CC=CC=CC(=O)O.COc1ccc2c3c([nH]c2c1)CCN(C)CC3 [Experiment 3-Sample L] |  |  | Suspension | Suspension | Suspension | XRPD (IPC, 6 d, wet) [2, 3]: Form A; XRPD (post oven dried) [2, 3]: Form A
CC=CC=CC(=O)O.COc1ccc2c3c([nH]c2c1)CCN(C)CC3 [Experiment 3-Sample M] |  |  | Suspension | Suspension | Suspension | XRPD (IPC, 6 d, wet) [2, 3]: Form A; XRPD (post oven dried) [2, 3]: Form A
CC=CC=CC(=O)O.COc1ccc2c3c([nH]c2c1)CCN(C)CC3 [Experiment 3-Sample N] |  |  | Suspension | Suspension | Suspension | XRPD (IPC, 6 d, wet) [2, 3]: Form A; XRPD (post oven dried) [2, 3]: Form A
CC=CC=CC(=O)O.COc1ccc2c3c([nH]c2c1)CCN(C)CC3 [Experiment 3-Sample O] |  |  | Suspension | Suspension | Suspension | XRPD (IPC, 6 d, wet) [2, 3]: Form A; XRPD (post oven dried) [2, 3]: Form A
CC=CC=CC(=O)O.COc1ccc2c3c([nH]c2c1)CCN(C)CC3 [Experiment 3-Sample R] |  |  | Suspension | Suspension | Suspension | XRPD (IPC, 6 d, wet) [2, 3]: Pattern #2; XRPD (post oven dried) [2, 3]: Form A
CC=CC=CC(=O)O.COc1ccc2c3c([nH]c2c1)CCN(C)CC3 [Experiment 3-Sample S] |  |  | Solution |  | Solution | 
CC=CC=CC(=O)O.COc1ccc2c3c([nH]c2c1)CCN(C)CC3 [Experiment 3-Sample T] |  |  | Solution | Solution | Solution | 
C/C=C/C=C/C(=O)O.COc1ccc2c3c([nH]c2c1)CCN(C)CC3 [Experiment 4-Sample A] |  |  |  |  |  | Observations (t = 1 d @ 40° C.) [2]: Suspension; Observations (t = 10 d @ 40° C.) [2]: Suspension; Observations (t = 0 @ 40° C.) [2]: Suspension; XRPD (IPC, 6 d, wet) [2, 4]: Form A; XRPD (post oven dried) [2, 4]: Form A
C/C=C/C=C/C(=O)O.COc1ccc2c3c([nH]c2c1)CCN(C)CC3 [Experiment 4-Sample B] |  |  |  |  |  | Observations (t = 1 d @ 40° C.) [2]: Suspension; Observations (t = 10 d @ 40° C.) [2]: Suspension; Observations (t = 0 @ 40° C.) [2]: Suspension; XRPD (IPC, 6 d, wet) [2, 4]: Form A; XRPD (post oven dried) [2, 4]: Form A
C/C=C/C=C/C(=O)O.COc1ccc2c3c([nH]c2c1)CCN(C)CC3 [Experiment 4-Sample C] |  |  |  |  |  | Observations (t = 1 d @ 40° C.) [2]: Suspension; Observations (t = 10 d @ 40° C.) [2]: Suspension; Observations (t = 0 @ 40° C.) [2]: Suspension; XRPD (IPC, 6 d, wet) [2, 4]: Form A; XRPD (post oven dried) [2, 4]: Form A
CC=CC=CC(=O)O.COc1ccc2c3c([nH]c2c1)CCN(C)CC3 [Experiment 4-Sample D] |  |  |  |  |  | Observations (t = 1 d @ 40° C.) [2]: Suspension; Observations (t = 10 d @ 40° C.) [2]: Suspension; Observations (t = 0 @ 40° C.) [2]: Suspension; XRPD (IPC, 6 d, wet) [2, 4]: Form A; XRPD (post oven dried) [2, 4]: Form A
C/C=C/C=C/C(=O)O.COc1ccc2c3c([nH]c2c1)CCN(C)CC3 [Experiment 4-Sample E] |  |  |  |  |  | Observations (t = 1 d @ 40° C.) [2]: Solution; Observations (t = 0 @ 40° C.) [2]: Partial; XRPD (IPC, 6 d, wet) [2, 4]: Pattern #5
CC=CC=CC(=O)O.COc1ccc2c3c([nH]c2c1)CCN(C)CC3 [Experiment 4-Sample F] |  |  |  |  |  | Observations (t = 1 d @ 40° C.) [2]: Partial; Observations (t = 0 @ 40° C.) [2]: Partial; XRPD (IPC, 6 d, wet) [2, 4]: Form A; XRPD (post oven dried) [2, 4]: Form A
